Laboratory results as given in patent publication US20230101312A1, “SOS1 INHIBITORS” (Mirati Therapeutics, Inc., priority 2020, published 2023).

Test system: MKN1 cells or H358
Test: pERK inhibition in-cell western
Assay type: cell-based
Settings: MKN1 or H358 cells (cell line not given), 1 hour with compound, GAPDH normalized
Method: This Example illustrates that exemplary compounds of the present invention prevent KRas-mediated GTP nucleotide exchange mediated by SOS1 to inhibit KRas activity thereby inhibiting the generation of the downstream effector pERK. MKN1 cells (15,000/w) or H358 (30,000/w) were seeded in a black clear flat bottom 96-well cell culture plate (Corning, #3904) and incubated at 37° C. overnight. Assay day 1, cells were dosed with compounds of Formula (I) with a 10 μm starting concentration and serially diluted 3× for a total of 9 concentrations. The cells were incubated for 1 hour with the compounds solubilized in DMSO at 37° C. Cells were immediately fixed by adding 50 μL of 4% formaldehyde to all wells in a fume hood and the plates were incubated for 20 minutes at room temperature. The formaldehyde was discarded from the plates and 150 μL of ice-cold methanol was added to permeabilize the cells for 10 minutes at −20° C. The methanol was discarded from each of the plates and any liquid remaining in the plate by tapping the plate against paper towels. Cells were then blocked with 150 μL of Odyssey blocking buffer (LI-COR Biosciences #927-50010) using 0.05% Tween for 1 hour at room temperature on a shaker. […] The IC50 values were then calculated with the Graph pad Prism software.

CNCc1ccccc1-c1csc([C@@H](C)Nc2ncc(C#N)c3cc(OC)c(OC)cc23)c1 [Example 1-1, (R)-6,7-dimethoxy-1-((1-(4-(2-((methylamino)methyl)phenyl)thiophen-2-yl)ethyl)amino)isoquinoline-4-carbonitrile]
IC50: 2050 nM
